Assay results from the NIST ThermoML archive (doi:10.1016/j.fluid.2017.11.013).
“And” between values parts separate entries of the source, which are not always exact repeats. Equal values may be shown once. Numbers after ± are expanded uncertainties.

Settings: Coaxial cylinder method

Compound: C=C [ethene]
- thermal conductivity (283.47 K, 101 kPa, Gas): 0.01865 ± 0.00069 W/m/K
- thermal conductivity (283.47 K, 4620 kPa, Fluid (supercritical or subcritical phases)): 0.03417 ± 0.0016 W/m/K
- thermal conductivity (283.47 K, 4770 kPa, Fluid (supercritical or subcritical phases)): 0.03732 ± 0.0017 W/m/K
- thermal conductivity (283.47 K, 4910 kPa, Fluid (supercritical or subcritical phases)): 0.04251 ± 0.0034 W/m/K
- thermal conductivity (283.47 K, 4960 kPa, Fluid (supercritical or subcritical phases)): 0.04566 ± 0.0026 W/m/K
- thermal conductivity (283.47 K, 5050 kPa, Fluid (supercritical or subcritical phases)): 0.05593 ± 0.0025 W/m/K
- thermal conductivity (283.47 K, 5090 kPa, Fluid (supercritical or subcritical phases)): 0.06391 ± 0.0027 W/m/K
- thermal conductivity (283.47 K, 5120 kPa, Fluid (supercritical or subcritical phases)): 0.07425 ± 0.0028 W/m/K
- thermal conductivity (283.47 K, 5140 kPa, Fluid (supercritical or subcritical phases)): 0.09013 ± 0.0034 W/m/K
- thermal conductivity (283.47 K, 5150 kPa, Fluid (supercritical or subcritical phases)): 0.1049 ± 0.0039 W/m/K and 0.1032 ± 0.0038 W/m/K
- thermal conductivity (283.47 K, 5160 kPa, Fluid (supercritical or subcritical phases)): 0.1241 ± 0.0048 W/m/K
- thermal conductivity (283.47 K, 5170 kPa, Fluid (supercritical or subcritical phases)): 0.1339 ± 0.0054 W/m/K
- thermal conductivity (283.47 K, 5180 kPa, Fluid (supercritical or subcritical phases)): 0.1143 ± 0.005 W/m/K
- thermal conductivity (283.47 K, 5190 kPa, Fluid (supercritical or subcritical phases)): 0.09843 ± 0.0054 W/m/K
- thermal conductivity (283.47 K, 5200 kPa, Fluid (supercritical or subcritical phases)): 0.09006 ± 0.0078 W/m/K and 0.0888 ± 0.0078 W/m/K
- thermal conductivity (283.47 K, 5210 kPa, Fluid (supercritical or subcritical phases)): 0.08522 ± 0.0098 W/m/K
- thermal conductivity (283.47 K, 5220 kPa, Fluid (supercritical or subcritical phases)): 0.08191 ± 0.011 W/m/K
- thermal conductivity (283.47 K, 5230 kPa, Fluid (supercritical or subcritical phases)): 0.07984 ± 0.01 W/m/K
- thermal conductivity (283.47 K, 5240 kPa, Fluid (supercritical or subcritical phases)): 0.07787 ± 0.0082 W/m/K
- thermal conductivity (283.47 K, 5250 kPa, Fluid (supercritical or subcritical phases)): 0.076 ± 0.0029 W/m/K
- thermal conductivity (283.47 K, 5290 kPa, Fluid (supercritical or subcritical phases)): 0.07419 ± 0.0041 W/m/K
- thermal conductivity (283.47 K, 5300 kPa, Fluid (supercritical or subcritical phases)): 0.07248 ± 0.0039 W/m/K
- thermal conductivity (283.47 K, 5370 kPa, Fluid (supercritical or subcritical phases)): 0.07203 ± 0.0033 W/m/K
- thermal conductivity (283.47 K, 5390 kPa, Fluid (supercritical or subcritical phases)): 0.07122 ± 0.0029 W/m/K
- thermal conductivity (283.47 K, 5440 kPa, Fluid (supercritical or subcritical phases)): 0.06948 ± 0.0027 W/m/K
- thermal conductivity (283.47 K, 5480 kPa, Fluid (supercritical or subcritical phases)): 0.06848 ± 0.0048 W/m/K
- thermal conductivity (283.47 K, 5540 kPa, Fluid (supercritical or subcritical phases)): 0.06774 ± 0.0027 W/m/K
- thermal conductivity (283.47 K, 5730 kPa, Fluid (supercritical or subcritical phases)): 0.06774 ± 0.0026 W/m/K
- thermal conductivity (283.47 K, 5820 kPa, Fluid (supercritical or subcritical phases)): 0.06848 ± 0.0027 W/m/K
- thermal conductivity (283.47 K, 5930 kPa, Fluid (supercritical or subcritical phases)): 0.06847 ± 0.0027 W/m/K
- thermal conductivity (283.47 K, 6220 kPa, Fluid (supercritical or subcritical phases)): 0.07041 ± 0.0027 W/m/K
- thermal conductivity (283.47 K, 6490 kPa, Fluid (supercritical or subcritical phases)): 0.07152 ± 0.0027 W/m/K
- thermal conductivity (283.47 K, 6720 kPa, Fluid (supercritical or subcritical phases)): 0.07259 ± 0.0028 W/m/K
- thermal conductivity (283.47 K, 6980 kPa, Fluid (supercritical or subcritical phases)): 0.07316 ± 0.0028 W/m/K
- thermal conductivity (283.47 K, 7060 kPa, Fluid (supercritical or subcritical phases)): 0.07329 ± 0.0028 W/m/K
- thermal conductivity (283.47 K, 7200 kPa, Fluid (supercritical or subcritical phases)): 0.07345 ± 0.0028 W/m/K
- thermal conductivity (283.47 K, 7610 kPa, Fluid (supercritical or subcritical phases)): 0.07519 ± 0.0029 W/m/K
- thermal conductivity (283.47 K, 8250 kPa, Fluid (supercritical or subcritical phases)): 0.07664 ± 0.0029 W/m/K
- thermal conductivity (283.47 K, 8910 kPa, Fluid (supercritical or subcritical phases)): 0.07874 ± 0.003 W/m/K
- thermal conductivity (283.96 K, 101 kPa, Gas): 0.01869 ± 0.00069 W/m/K
- thermal conductivity (283.96 K, 3380 kPa, Fluid (supercritical or subcritical phases)): 0.02528 ± 0.0013 W/m/K
- thermal conductivity (283.96 K, 3960 kPa, Fluid (supercritical or subcritical phases)): 0.02767 ± 0.0014 W/m/K
- thermal conductivity (283.96 K, 4620 kPa, Fluid (supercritical or subcritical phases)): 0.03396 ± 0.0016 W/m/K
- thermal conductivity (283.96 K, 4970 kPa, Fluid (supercritical or subcritical phases)): 0.04334 ± 0.002 W/m/K
- thermal conductivity (283.96 K, 5050 kPa, Fluid (supercritical or subcritical phases)): 0.04855 ± 0.0022 W/m/K
- thermal conductivity (283.96 K, 5090 kPa, Fluid (supercritical or subcritical phases)): 0.05262 ± 0.0025 W/m/K
- thermal conductivity (283.96 K, 5110 kPa, Fluid (supercritical or subcritical phases)): 0.05631 ± 0.0029 W/m/K
- thermal conductivity (283.96 K, 5120 kPa, Fluid (supercritical or subcritical phases)): 0.05987 ± 0.003 W/m/K
- thermal conductivity (283.96 K, 5150 kPa, Fluid (supercritical or subcritical phases)): 0.06832 ± 0.004 W/m/K
- thermal conductivity (283.96 K, 5190 kPa, Fluid (supercritical or subcritical phases)): 0.08914 ± 0.0041 W/m/K
- thermal conductivity (283.96 K, 5200 kPa, Fluid (supercritical or subcritical phases)): 0.1005 ± 0.0042 W/m/K
- thermal conductivity (283.96 K, 5210 kPa, Fluid (supercritical or subcritical phases)): 0.11 ± 0.0044 W/m/K
- thermal conductivity (283.96 K, 5220 kPa, Fluid (supercritical or subcritical phases)): 0.1162 ± 0.0045 W/m/K
- thermal conductivity (283.96 K, 5230 kPa, Fluid (supercritical or subcritical phases)): 0.1119 ± 0.0042 W/m/K
- thermal conductivity (283.96 K, 5240 kPa, Fluid (supercritical or subcritical phases)): 0.1008 ± 0.0038 W/m/K
- thermal conductivity (283.96 K, 5260 kPa, Fluid (supercritical or subcritical phases)): 0.08675 ± 0.0033 W/m/K
- thermal conductivity (283.96 K, 5270 kPa, Fluid (supercritical or subcritical phases)): 0.08189 ± 0.0031 W/m/K
- thermal conductivity (283.96 K, 5290 kPa, Fluid (supercritical or subcritical phases)): 0.0783 ± 0.0031 W/m/K
- thermal conductivity (283.96 K, 5300 kPa, Fluid (supercritical or subcritical phases)): 0.07641 ± 0.0031 W/m/K
- thermal conductivity (283.96 K, 5340 kPa, Fluid (supercritical or subcritical phases)): 0.07293 ± 0.0037 W/m/K
- thermal conductivity (283.96 K, 5400 kPa, Fluid (supercritical or subcritical phases)): 0.07163 ± 0.0028 W/m/K
- thermal conductivity (283.96 K, 5500 kPa, Fluid (supercritical or subcritical phases)): 0.06977 ± 0.0027 W/m/K
- thermal conductivity (283.96 K, 5590 kPa, Fluid (supercritical or subcritical phases)): 0.06886 ± 0.0027 W/m/K
